The text below walks through data of ChEMBL document CHEMBL3880408, “MgluR5 modulators” (2008).

This data set is described as follows: Ratio of drug level in brain to plasma in Sprague-Dawley rat by HPLC and MS-MS method. Type of data set: ADME, cell-free. The settings on record: read-out: BPR.
For `Cc1cccc(-n2nnc([C@@H](C)Oc3nnc(-c4cn[nH]c(=O)c4)n3C)n2)c1`, the Kp is less than 0.5.

For the molecule `C[C@@H](Oc1nnc(-c2cc[nH]c(=O)c2)n1C)c1noc(-c2cccc(Cl)c2)n1`, the Kp is less than 0.5.

Turning to `C[C@@H](Oc1nnc(-c2cn[nH]c(=O)c2)n1C)c1cc(-c2cccc(Cl)c2)on1`, the Kp is less than 0.5.

With `Cc1cccc(-c2cc([C@@H](C)Oc3nnc(-c4cn[nH]c(=O)c4)n3C)no2)c1`, the Kp was less than 0.5.

With `C[C@@H](Oc1nnc(-c2ccn(C)c(=O)c2)n1C)c1noc(-c2cccc(Cl)c2)n1`, the Kp is less than 0.5.

Regarding `C[C@@H](Oc1nnc(-c2ccn(C)c(=O)c2)n1C)c1cc(-c2cccc(Cl)c2)on1`, the Kp was less than 0.5.

With `C[C@@H](Oc1nnc(-c2cc[nH]c(=O)c2)n1C)c1nnn(-c2cccc(Cl)c2)n1`, the Kp is less than 0.5.

As to `C[C@@H](Oc1nnc(-c2cn[nH]c(=O)c2)n1C)c1noc(-c2cccc(Cl)c2)n1`, the Kp is less than 0.5.

`C[C@@H](Oc1nnc(-c2cn[nH]c(=O)c2)n1C)c1nnn(-c2cccc(Cl)c2)n1`: the Kp was less than 0.5.

Consider `Cn1c(OCc2cc(-c3cccc(Cl)c3)on2)nnc1-c1cc[nH]c(=O)c1`, for which the Kp was less than 0.5.
